# Measurements as given in US12017975B2, “Myc-Max inhibitor compound therapeutics for cancer treatment, methods and uses associated therewith” (THE UNIVERSITY OF BRITISH COLUMBIA, priority 2018, dated 2024).
# Like-named read-outs stand apart in the source and are kept apart here.
# Experiments:
# [1] = test system: Myc-Max transcriptional activity; test: Cignal c-Myc luciferase reporter assay in LNCaP cells; format: cell-based; conditions: for inhibition at 25 µM / IC50 / inhibition at 5 µM / inhibition at 10 µM / inhibition at 12.5 µM: Homo sapiens, LNCaP; for inhibition at 25 µM: read-out: % Inhibition 25 μM; for IC50: assay not named, read-out: IC50
# Experimental: Cell transfection was performed using TransIT-2020™ transfection reagents according to the manufacturer's instructions (Mirus™). LNCaP cells were plated at 10000 cells per well and treated for 1 day with the indicated concentration of compound. Myc reporter activity was measured using the Cignal Myc Reporter Assay Kit™ from Qiagen™ (#336841) according to the manufacturer's instructions. For the UBE2C reporter assay, 22rv1 cells were plated at 10000 cells per well in 96-well plates in RPMI media supplemented with 5% charcoal-stripped serum (CSS) and treated for 1 day with 1 μM, 10 μM and 25 μM of compound.
# Compounds were subjected to experimental evaluation using the commercially available transcriptional assay Cignal c-Myc luciferase reporter assay in LNCaP cells. […] A transiently transfected Myc-driven luciferase reporter allowed the monitoring of Myc-regulated signal in LNCaP upon treatment with the in silico identified compounds.
# [2] = test system: LNCaP cells; test: PARP cleavage (apoptosis) by Western blot in LNCaP cells; format: cell-based; conditions: TABLE 2, LNCaP cells
# Experimental: After 48 hours of treatment with Myc compounds, LNCaP cells were lysed, and protein sample preparation followed by Western blotting were performed. Blots were incubated with primary antibodies against c-Myc, PARP (Sigma™ 084M4766V), PARP cleaved-Asp214 (Sigma™ SAB4500487) and β-Actin (Sigma™ A2066) overnight at 4° C., followed by appropriate peroxidase-conjugated secondary antibodies. β-actin served as an internal control. Visualization of the immunocomplexes was done by an enhanced chemiluminescence detection system (Millipore™) followed by exposure to X-ray films.
# Apoptosis. Myc inhibition induces cell death by cell cycle arrest and apoptosis. Cleavage of PARP-1 by caspases is considered a hallmark of apoptosis and so we measured the ability of compounds to induce PARP cleavage after treatment.
# [3] = TABLE 2, values match Myc-Max transcriptional activity
SMILES,"inhibition at 25 µM ([1]; 25 μM, TABLE 3) [%]","inhibition at 5 µM ([1]; 5 μM, TABLE 3) [%]",inhibition at 10 µM ([1]; TABLE 3) [%],also measured
S=C(NCc1ccncc1)Nc1cc(Cl)cc(Cl)c1 [VPC-70084],80,–,–,"IC50 [1, 3]: 20 µM; PARP effect [2]: weak"
O=C(CCN1C(=O)S/C(=C\c2ccccc2)C1=O)NCCc1c[nH]c2ccccc12 [VPC-70388],77,–,–,"IC50 [1, 3]: 20 µM"
Cc1ccc(O)c(-c2cc(C(=O)Nc3ccc(S(=O)(=O)N4CCCCC4)cc3)n[nH]2)c1 [VPC-70389],–,–,–,"inhibition at 25 µM ([1]; 25 μM, TABLE 5): 58%"
Cc1cccc(-c2cc(C(=O)Nc3ccc(S(=O)(=O)N4CCCCC4)cc3)n[nH]2)c1O [VPC-70390],97,–,–,"IC50 [1, 3]: 9 µM"
CS(=O)(=O)Nc1cccc(C2=NN(C(=O)CCC(=O)O)[C@H](c3ccccc3O)C2)c1 [VPC-70391],–,–,–,"inhibition at 25 µM ([1]; 25 μM, TABLE 5): 54%"
CCn1c(CC(=O)Nc2cccc(C)c2)nnc1SCC(=O)Nc1cc(F)ccc1F [VPC-70392],–,–,–,"inhibition at 25 µM ([1]; 25 μM, TABLE 5): 58%"
Cc1c(CC(=O)NCC[C@@H](c2ccc(Cl)cc2)C(C)C)c(=O)oc2c(O)c(O)ccc12 [VPC-70393],96,–,–,–
NS(=O)(=O)c1ccc(NC(=O)[C@H]2CC=CC[C@H]2C(=O)O)cc1 [VPC-70394],–,–,–,"inhibition at 25 µM ([1]; 25 μM, TABLE 5): 54%"
O=C(N[C@H](CO)Cc1ccccc1)c1cc(-n2cnnc2)ccc1Cl [VPC-70395],–,–,–,"inhibition at 25 µM ([1]; 25 μM, TABLE 5): 56%; IC50 [1, 3]: > 25 µM"
CCCc1cc(=O)oc2cc(C)cc(OCC(=O)N[C@@H](C)C(=O)O)c12 [VPC-70404],–,–,–,"inhibition at 25 µM ([1]; 25 μM, TABLE 5): 53%"
CCCc1cc(=O)oc2cc(C)cc(OCC(=O)N[C@H](C(=O)O)C(C)C)c12 [VPC-70405],–,–,–,"inhibition at 25 µM ([1]; 25 μM, TABLE 5): 54%"
FC(F)(F)c1cc(NC(=S)NC[C@H]2CCCO2)cc(C(F)(F)F)c1 [VPC-70437],87,24,105,–
S=C(NCc1cccs1)Nc1ccc(Cl)c(Cl)c1 [VPC-70458],86,42,104,–
Fc1ccccc1CNC(=S)Nc1cccc(C(F)(F)F)c1 [VPC-70465],92,51,–,"% Inhibition 10 μM ([1]; TABLE 3): 95%; IC50 [1, 3]: 10 µM"
O=C(NCc1ccccc1Cl)Nc1ccc(Cl)c(Cl)c1 [VPC-70466],86,1,48,–
Cc1c(Cl)cccc1NC(=S)NCc1ccc(F)cc1 [VPC-70468],74,9,30,–
CC[C@@H](NC(=S)Nc1cccc(C)c1)c1ccccc1 [VPC-70473],77,–,–,–
S=C(NCc1ccccc1)Nc1cccc(Cl)c1 [VPC-70477],99,3,30,–
Cc1cc(NC(=S)NCC(C)C)cc(C(F)(F)F)c1 [VPC-70478],91,26,65,–
Fc1ccccc1CNC(=S)Nc1cccc(C(F)(F)F)c1 [VPC-70483],–,–,–,"% Inhibition 5 μM ([1]; 5 μM, TABLE 3): 31%; % Inhibition 10 μM ([1]; TABLE 3): 38%; % Inhibition 25 μM ([1]; 25 μM, TABLE 3): 79%"
CS(=O)(O)=Nc1cccc(NC(=S)NCc2cccc(C(F)(F)F)c2)c1 [VPC-70487],79,34,42,–
C=C(C)COc1cccc(NC(=S)NCc2cccc(C(F)(F)F)c2)c1 [VPC-70489],99,38,86,–

SMILES,"inhibition at 25 µM ([1]; 25 μM, TABLE 3) [%]","inhibition at 5 µM ([1]; 5 μM, TABLE 3) [%]",inhibition at 10 µM ([1]; TABLE 3) [%],also measured
FC(F)(F)c1cc(Br)cc(NC(=S)NCc2cccs2)c1 [VPC-70495],100,107,80,"IC50 [1, 3]: 5 µM"
S=C(NCc1cccnc1)Nc1cc(Cl)cc(Cl)c1 [VPC-70496],96,22,95,–
S=C(NCc1ccccc1)Nc1cc(Cl)cc(Cl)c1 [VPC-70498],100,36,106,–
COC(=O)c1cc(NC(=S)NCc2ccccc2)cc(Cl)c1F [VPC-70501],90,34,37,–
C[C@@H]1CN(Cc2ccc(CNC(=S)Nc3cccc(C(F)(F)F)c3)cc2)C[C@@H](C)O1 [VPC-70506],89,73,66,–
O=C(Nc1cccc(C(F)(F)F)c1)Nc1cccc(C(F)(F)F)c1 [VPC-70511],102,108,112,"IC50 [1, 3]: 2 µM"
FC(F)(F)c1cccc(NC(=S)Nc2ccc(Cl)c(C(F)(F)F)c2)c1 [VPC-70514],102,109,110,–
FC(F)Oc1ccc(CNC(=S)Nc2cccc(C(F)(F)F)c2)cc1 [VPC-70523],102,-4,104,–
S=C(NCc1ccc(Cl)nc1)Nc1cccc(Cl)c1 [VPC-70524],102,22,4,–
NS(=O)(=O)c1cc(F)cc(NC(=S)NCc2ccccc2)c1 [VPC-70525],102,40,35,–
S=C(NCc1ccccc1)Nc1cccc(COc2ccccc2)c1 [VPC-70526],94,41,62,–
O=C(NCCc1ccccc1)C(=O)Nc1cc(C(F)(F)F)cc(C(F)(F)F)c1 [VPC-70527],92,38,43,–
CC(C)(C)CNC(=S)Nc1cccc(C(F)(F)F)c1 [VPC-70529],94,14,52,–
Cc1c(Cl)cc(NC(=S)NCc2ccccc2)cc1Cl [VPC-70530],–,–,–,inhibition at 12.5 µM ([1]; TABLE 3): 94%
NC(=O)NCc1ccc(NC(=S)NCc2ccccc2)cc1 [VPC-70531],81,0,27,inhibition at 12.5 µM ([1]; TABLE 3): 47%
Fc1ccc(NC(=S)NCc2ccccc2)cc1C(F)(F)F [VPC-70532],–,–,–,inhibition at 12.5 µM ([1]; TABLE 3): 101%
FC(F)(F)c1cccc(NC(=S)NCc2ccccc2C(F)(F)F)c1 [VPC-70535],–,–,–,inhibition at 12.5 µM ([1]; TABLE 3): 95%
O=C(NCCNS(=O)(=O)c1ccccc1)NNC(=O)c1cccc(C(F)(F)F)c1 [VPC-70549],–,–,–,inhibition at 12.5 µM ([1]; TABLE 3): 75%
N#Cc1ccc(NNC(=O)c2ccc(C(F)(F)F)cc2)c(C(F)(F)F)c1 [VPC-70551],–,–,–,inhibition at 10 µM ([1]; TABLE 6): 91%; IC50 ([1]; TABLE 6 footnote): 4 µM
O=C(CCNC(=O)c1cccc(C(F)(F)F)c1)NCc1ccccc1 [VPC-70554],–,–,–,inhibition at 12.5 µM ([1]; TABLE 3): 71%
CC(C)(O)c1ccc(CNC(=S)NCc2cccc(C(F)(F)F)c2)cc1 [VPC-70561],–,–,–,inhibition at 12.5 µM ([1]; TABLE 3): 95%
Cc1cc(NC(=S)NCc2ccon2)cc(C(F)(F)F)c1 [VPC-70564],–,–,–,inhibition at 12.5 µM ([1]; TABLE 3): 73%
